Test results from ChEMBL document CHEMBL5055657, “Effect of phenylurea hydroxamic acids on histone deacetylase and VEGFR-2” (Bioorg Med Chem, 2021).

Tests used:
SK-HEP1 = test: cells; assay type: functional, cell-based; conditions: Homo sapiens, SK-HEP1, 48 h
PC-3 = test: cells; assay type: functional, cell-based; conditions: Homo sapiens, PC-3, 48 h
A549 = test: cells; assay type: functional, cell-based; conditions: Homo sapiens, A549, 48 h
cells = assay type: functional; conditions: Homo sapiens, Endothelial progenitor cell; time 48 hrs
Histone deacetylase 8 = target: T1, Histone deacetylase 8 (Homo sapiens, UniProt Q9BY41); test: Inhibition of recombinant C-terminal His-fusion tagged/N-terminal Strep2 tagged human HDAC8 (1 to 377 residues) expressed in insect cells using RHK-K(Ac)-K(Ac)-AMC as substrate measured after 60 mins by fluorescence plate reader assay
T1 sequence (Q9BY41 whole entry): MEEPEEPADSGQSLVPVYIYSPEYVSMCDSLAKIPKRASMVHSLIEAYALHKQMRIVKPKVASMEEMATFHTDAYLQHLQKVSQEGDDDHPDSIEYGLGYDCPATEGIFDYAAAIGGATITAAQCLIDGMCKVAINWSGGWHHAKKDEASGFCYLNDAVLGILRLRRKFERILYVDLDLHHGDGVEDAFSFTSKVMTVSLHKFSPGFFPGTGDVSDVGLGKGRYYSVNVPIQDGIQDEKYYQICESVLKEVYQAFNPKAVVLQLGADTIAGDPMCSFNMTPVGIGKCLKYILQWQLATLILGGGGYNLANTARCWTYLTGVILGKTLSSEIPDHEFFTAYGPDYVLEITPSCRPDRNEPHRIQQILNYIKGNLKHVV

[1] = target: T2, Protein deacetylase HDAC6 (Homo sapiens, UniProt Q9UBN7); test: Inhibition of full length recombinant N-terminal GST-tagged human HDAC6 expressed in baculovirus infected Sf9 insect cells using RHK-K(Ac)-AMC as substrate measured after 90 mins by fluorescence plate reader assay
T2 sequence (Q9UBN7 whole entry): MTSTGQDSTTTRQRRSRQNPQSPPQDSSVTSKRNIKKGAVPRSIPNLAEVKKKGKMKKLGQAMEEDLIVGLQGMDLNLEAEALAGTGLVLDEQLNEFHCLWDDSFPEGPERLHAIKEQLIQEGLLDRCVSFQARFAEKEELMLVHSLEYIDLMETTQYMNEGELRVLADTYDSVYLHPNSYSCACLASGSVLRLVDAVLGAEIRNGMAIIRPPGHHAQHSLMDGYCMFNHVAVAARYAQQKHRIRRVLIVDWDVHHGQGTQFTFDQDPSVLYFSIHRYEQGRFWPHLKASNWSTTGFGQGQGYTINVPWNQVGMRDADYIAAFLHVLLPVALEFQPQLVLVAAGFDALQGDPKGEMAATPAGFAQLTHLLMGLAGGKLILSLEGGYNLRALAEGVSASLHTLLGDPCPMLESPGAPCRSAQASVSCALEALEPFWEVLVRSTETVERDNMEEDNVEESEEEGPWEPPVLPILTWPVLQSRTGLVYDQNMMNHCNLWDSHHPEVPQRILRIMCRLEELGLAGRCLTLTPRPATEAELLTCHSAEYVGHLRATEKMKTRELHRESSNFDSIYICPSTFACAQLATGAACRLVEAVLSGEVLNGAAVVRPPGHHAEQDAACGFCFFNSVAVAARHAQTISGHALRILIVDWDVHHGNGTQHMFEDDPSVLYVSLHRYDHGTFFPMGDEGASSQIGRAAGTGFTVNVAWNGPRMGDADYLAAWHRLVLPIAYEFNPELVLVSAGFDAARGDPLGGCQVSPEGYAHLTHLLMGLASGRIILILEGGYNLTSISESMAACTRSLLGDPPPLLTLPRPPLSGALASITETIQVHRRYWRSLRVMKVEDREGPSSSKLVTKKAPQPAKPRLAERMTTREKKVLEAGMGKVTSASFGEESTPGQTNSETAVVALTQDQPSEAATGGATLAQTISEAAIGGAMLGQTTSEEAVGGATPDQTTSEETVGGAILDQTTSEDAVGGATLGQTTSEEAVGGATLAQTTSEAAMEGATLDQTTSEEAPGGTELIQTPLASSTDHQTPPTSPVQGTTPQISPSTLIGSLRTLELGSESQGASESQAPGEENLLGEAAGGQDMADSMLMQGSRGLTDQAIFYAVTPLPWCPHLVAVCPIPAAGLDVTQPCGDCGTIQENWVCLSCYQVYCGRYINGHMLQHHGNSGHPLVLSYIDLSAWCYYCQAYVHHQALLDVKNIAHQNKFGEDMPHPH

Homo sapiens [2] = species on record: Homo sapiens; test: Selectivity ratio of IC50 for recombinant C-terminal His-fusion tagged/N-terminal Strep2 tagged human HDAC8 (1 to 377 residues) expressed in insect cells to IC50 full length recombinant N-terminal GST-tagged human HDAC6 expressed in baculovirus infected Sf9 insect cells
[3] = target: T3, Histone deacetylase (Homo sapiens) (UniProt Q13547+O15379+Q9UBN7+Q92769+Q9UQL6+Q8WUI4+Q9BY41+Q96DB2+P56524+Q9UKV0+Q969S8); test: Inhibition of HDAC in human A549 cells assessed as increase in acetylated alpha tubulin level measured after 24 hrs by Western blot analysis; assay type: cell-based; conditions: dose 5-10 µM
[4] = target: T3, Histone deacetylase (Homo sapiens); test: Inhibition of HDAC in human PC-3 cells assessed as increase in acetylated alpha tubulin level measured after 24 hrs by Western blot analysis; assay type: cell-based; conditions: dose 5-10 µM
[5] = target: T3, Histone deacetylase (Homo sapiens); test: Inhibition of HDAC in human SK-HEP1 cells assessed as increase in acetylated alpha tubulin level measured after 24 hrs by Western blot analysis; assay type: cell-based; conditions: dose 5-10 µM
[6] = target: T3, Histone deacetylase (Homo sapiens); test: Inhibition of HDAC in human A549 cells assessed as increase in acetylated histone H3 level measured after 24 hrs by Western blot analysis; assay type: cell-based; conditions: dose 5-10 µM
[7] = target: T3, Histone deacetylase (Homo sapiens); test: Inhibition of HDAC in human PC-3 cells assessed as increase in acetylated histone H3 level measured after 24 hrs by Western blot analysis; assay type: cell-based; conditions: dose 5-10 µM
[8] = target: T3, Histone deacetylase (Homo sapiens); test: Inhibition of HDAC in human SK-HEP1 cells assessed as increase in acetylated histone H3 level measured after 24 hrs by Western blot analysis; assay type: cell-based; conditions: dose 5-10 µM
Histone deacetylase 1 = Histone deacetylase 1 (Homo sapiens, UniProt Q13547); test: Inhibition of full length recombinant C-terminal FLAG/His-tagged human HDAC1 expressed in baculovirus infected Sf21 insect cells using RHK-K(Ac)-AMC as substrate measured after 60 mins by fluorescence plate reader assay
Histone deacetylase 2 = Histone deacetylase 2 (Homo sapiens, UniProt Q92769); test: Inhibition of full length recombinant C-terminal GST-fusion-tagged human HDAC2 expressed in insect cells using RHK-K(Ac)-AMC as substrate measured after 60 mins by fluorescence plate reader assay
Homo sapiens [9] = species on record: Homo sapiens; test: Selectivity ratio of IC50 for full length recombinant C-terminal FLAG/His-tagged human HDAC1 expressed in baculovirus infected Sf21 insect cells to IC50 for full length recombinant N-terminal GST-tagged human HDAC6 expressed in baculovirus infected Sf9 insect cells
Homo sapiens [10] = species on record: Homo sapiens; test: Selectivity ratio of IC50 for full length recombinant C-terminal GST-fusion-tagged human HDAC2 to IC50 for full length recombinant N-terminal GST-tagged human HDAC6 expressed in baculovirus infected Sf9 insect cells
[11] = target: T4, Vascular endothelial growth factor receptor 2 (Homo sapiens, UniProt P35968)
[12] = test system: Endothelial progenitor cell; test: Antiangiogenesis activity in human Endothelial progenitor cells assessed as retarded capillary like tube formation measured for 24 hrs by microscopic analysis; assay type: functional, tissue-based; conditions: dose 5-10 µM
[13] = target: T4, Vascular endothelial growth factor receptor 2; test: Inhibition of VEGFR2 phosphorylation in human Endothelial progenitor cells at 5 to 10 uM measured after 10 mins by Western blot analysis; assay type: tissue-based; conditions: Endothelial progenitor cell, dose 5-10 µM

T4 sequence (P35968 whole entry): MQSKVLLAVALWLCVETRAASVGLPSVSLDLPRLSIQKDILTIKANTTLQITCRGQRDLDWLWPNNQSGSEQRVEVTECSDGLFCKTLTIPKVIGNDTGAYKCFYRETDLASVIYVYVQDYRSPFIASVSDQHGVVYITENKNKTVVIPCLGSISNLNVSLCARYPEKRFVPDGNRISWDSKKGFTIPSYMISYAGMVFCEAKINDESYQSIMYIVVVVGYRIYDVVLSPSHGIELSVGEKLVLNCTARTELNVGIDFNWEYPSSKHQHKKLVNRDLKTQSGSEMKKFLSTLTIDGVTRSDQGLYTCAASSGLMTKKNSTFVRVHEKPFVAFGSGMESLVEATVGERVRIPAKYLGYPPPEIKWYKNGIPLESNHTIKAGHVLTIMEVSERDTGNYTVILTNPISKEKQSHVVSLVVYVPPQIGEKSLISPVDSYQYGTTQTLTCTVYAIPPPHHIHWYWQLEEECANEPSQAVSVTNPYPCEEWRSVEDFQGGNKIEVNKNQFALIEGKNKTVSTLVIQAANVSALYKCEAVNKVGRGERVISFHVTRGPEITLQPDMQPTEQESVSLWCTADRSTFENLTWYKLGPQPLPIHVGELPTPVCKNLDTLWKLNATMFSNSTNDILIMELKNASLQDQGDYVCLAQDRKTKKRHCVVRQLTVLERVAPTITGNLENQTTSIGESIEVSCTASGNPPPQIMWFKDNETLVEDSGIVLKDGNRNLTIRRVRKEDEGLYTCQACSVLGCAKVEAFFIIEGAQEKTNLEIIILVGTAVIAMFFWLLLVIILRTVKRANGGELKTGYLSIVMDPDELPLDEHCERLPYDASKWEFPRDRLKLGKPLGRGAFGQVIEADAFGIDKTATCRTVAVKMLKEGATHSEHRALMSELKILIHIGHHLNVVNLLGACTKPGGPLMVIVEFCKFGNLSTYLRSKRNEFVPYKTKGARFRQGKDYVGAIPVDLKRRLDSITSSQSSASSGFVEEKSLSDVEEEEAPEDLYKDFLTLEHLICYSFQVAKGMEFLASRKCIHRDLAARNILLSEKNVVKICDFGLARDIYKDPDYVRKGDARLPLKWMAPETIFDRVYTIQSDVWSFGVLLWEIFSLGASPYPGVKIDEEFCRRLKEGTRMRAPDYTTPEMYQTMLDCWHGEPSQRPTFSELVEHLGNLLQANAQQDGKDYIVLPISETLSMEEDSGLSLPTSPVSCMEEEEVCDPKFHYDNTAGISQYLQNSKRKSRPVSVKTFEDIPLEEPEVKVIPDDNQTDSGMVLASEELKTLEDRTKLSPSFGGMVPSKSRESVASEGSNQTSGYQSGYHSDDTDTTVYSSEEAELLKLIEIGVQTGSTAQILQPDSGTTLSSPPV
Histone deacetylase 1, sequence (Q13547 whole entry, the tested form may be a part): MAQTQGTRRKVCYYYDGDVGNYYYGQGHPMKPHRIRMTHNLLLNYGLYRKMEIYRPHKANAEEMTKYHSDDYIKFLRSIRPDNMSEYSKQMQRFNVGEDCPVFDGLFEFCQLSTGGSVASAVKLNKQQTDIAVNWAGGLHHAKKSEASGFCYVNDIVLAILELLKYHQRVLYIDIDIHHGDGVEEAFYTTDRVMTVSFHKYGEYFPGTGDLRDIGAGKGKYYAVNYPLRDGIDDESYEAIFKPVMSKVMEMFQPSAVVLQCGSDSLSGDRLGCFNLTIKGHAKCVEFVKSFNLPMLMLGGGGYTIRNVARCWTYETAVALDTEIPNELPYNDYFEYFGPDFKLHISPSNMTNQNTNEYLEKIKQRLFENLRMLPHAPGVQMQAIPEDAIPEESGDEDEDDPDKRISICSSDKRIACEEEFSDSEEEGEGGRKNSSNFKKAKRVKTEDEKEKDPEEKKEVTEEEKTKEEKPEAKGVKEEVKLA
Histone deacetylase 2, sequence (Q92769 whole entry, the tested form may be a part): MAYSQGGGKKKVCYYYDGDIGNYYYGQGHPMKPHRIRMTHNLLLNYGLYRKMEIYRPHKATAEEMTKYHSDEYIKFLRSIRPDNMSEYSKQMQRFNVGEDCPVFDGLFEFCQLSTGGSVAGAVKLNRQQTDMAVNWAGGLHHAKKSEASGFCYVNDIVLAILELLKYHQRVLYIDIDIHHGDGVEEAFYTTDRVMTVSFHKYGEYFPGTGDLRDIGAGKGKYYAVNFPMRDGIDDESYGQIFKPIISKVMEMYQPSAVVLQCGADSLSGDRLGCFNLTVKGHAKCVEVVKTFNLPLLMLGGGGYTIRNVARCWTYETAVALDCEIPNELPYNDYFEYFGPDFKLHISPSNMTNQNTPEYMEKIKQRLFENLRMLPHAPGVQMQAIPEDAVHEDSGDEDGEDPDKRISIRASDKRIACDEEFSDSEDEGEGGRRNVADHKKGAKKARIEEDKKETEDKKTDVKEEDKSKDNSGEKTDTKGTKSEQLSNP

SMILES	IC50 (SK-HEP1) [µM]	IC50 (PC-3) [µM]	IC50 (A549) [µM]	IC50 [1] [µM]	GI50 (cells) [µM]	further results
O=C(CCCCCCC(=O)Nc1ccc(NC(=O)Nc2ccc(Cl)c(C(F)(F)F)c2)cc1)NO	8.1	4.6	9.5		4.5	
O=C(/C=C/c1ccc(NC(=O)Nc2ccc(Cl)c(C(F)(F)F)c2)cc1)NO	3.2	1.9	3.4	0.166	1	IC50 (Histone deacetylase 1): 7.23 µM; IC50 (Histone deacetylase 2): > 10 µM; IC50 (Histone deacetylase 8): 1.99 µM; Ratio IC50 (Homo sapiens [9]): 43.6; Ratio IC50 (Homo sapiens [10]): > 60.2; Ratio IC50 (Homo sapiens [2]): 12; IC50 [11]: 13.2 µM; inhibition [3]: Dose-dependent effect; inhibition [4]: Dose-dependent effect; inhibition [5]: Dose-dependent effect; inhibition [6]: Dose-dependent effect; inhibition [7]: Dose-dependent effect; inhibition [8]: Dose-dependent effect; Activity [12]: Dose-dependent effect; inhibition [13]: Dose-dependent effect
O=C(Nc1ccc2c(c1)CCN2Cc1ccc(C(=O)NO)cc1)Nc1ccc(Cl)c(C(F)(F)F)c1	4.6	3.4	3.1		1.6	
O=C(Nc1ccc(C(=O)NO)cc1)Nc1ccc(Cl)c(C(F)(F)F)c1	3.8	3.1	7.2		1.3	
O=C(Nc1ccc(NCc2ccc(C(=O)NO)cc2)cc1)Nc1ccc(Cl)c(C(F)(F)F)c1	7.2	3.8	4.3		2.8	
O=C(Nc1ccc(Nc2ncc(C(=O)NO)cn2)cc1)Nc1ccc(Cl)c(C(F)(F)F)c1	> 10	> 10	> 10		5.8	
O=C(Nc1ccc2c(c1)CCCN2c1ccc(C(=O)NO)cc1)Nc1ccc(Cl)c(C(F)(F)F)c1	3.4	3	2.9	1.2	1	IC50 [11]: 13.2 µM
O=C(CCCCCC(=O)Nc1ccc(NC(=O)Nc2ccc(Cl)c(C(F)(F)F)c2)cc1)NO	> 10	> 10	> 10		> 10	
CNC(=O)c1cc(Oc2ccc(NC(=O)Nc3ccc(Cl)c(C(F)(F)F)c3)cc2)ccn1 [SORAFENIB]	7.3	6.3	5		5	

Continued, in another order:

IC50 (SK-HEP1) [µM]	IC50 (PC-3) [µM]	IC50 (A549) [µM]	IC50 [1] [µM]	SMILES	GI50 (cells) [µM]	further results
4.5	3.2	3		O=C(Nc1ccc2c(c1)CCCN2Cc1ccc(C(=O)NO)cc1)Nc1ccc(Cl)c(C(F)(F)F)c1	1.4	
4.5	3.1	2.8	0.251	O=C(Nc1ccc2c(c1)N(Cc1ccc(C(=O)NO)cc1)CC2)Nc1ccc(Cl)c(C(F)(F)F)c1	1.4	IC50 (Histone deacetylase 8): 1.71 µM; Ratio IC50 (Homo sapiens [2]): 6.8; inhibition [3]: Dose-dependent effect; inhibition [4]: Dose-dependent effect; inhibition [5]: Dose-dependent effect; inhibition [6]: Dose-dependent effect; inhibition [7]: Dose-dependent effect; inhibition [8]: Dose-dependent effect
3.5	2.3	2.7	1.14	O=C(/C=C/c1ccc(CN2CCc3cc(NC(=O)Nc4ccc(Cl)c(C(F)(F)F)c4)ccc32)cc1)NO	1.2	
> 10	> 10	> 10		O=C(CCCCC(=O)Nc1ccc(NC(=O)Nc2ccc(Cl)c(C(F)(F)F)c2)cc1)NO	> 10	
4.1	3.8	3.4	0.825	O=C(Nc1ccc2c(c1)CCN2c1ccc(C(=O)NO)cc1)Nc1ccc(Cl)c(C(F)(F)F)c1	2	
> 10	> 10	> 10		O=C(CCCC(=O)Nc1ccc(NC(=O)Nc2ccc(Cl)c(C(F)(F)F)c2)cc1)NO	> 10	
